Data: article PMC2680092 (Journal of molecular biology, 2008)
Like-named read-outs stand apart in the source and are kept apart here.

Biological target: DEN MTase (Dengue virus type 2, UniProt P29990)
Experiment: GTP-Bodipy displacement
Type: binding
Details: for Fold Affinity Reduction: Ki relative to GTP
[1] = 10 nM GTP-Bodipy, 500 nM DEN MTase

DEN MTase, sequence (P29990 2493-2755 limits assumed): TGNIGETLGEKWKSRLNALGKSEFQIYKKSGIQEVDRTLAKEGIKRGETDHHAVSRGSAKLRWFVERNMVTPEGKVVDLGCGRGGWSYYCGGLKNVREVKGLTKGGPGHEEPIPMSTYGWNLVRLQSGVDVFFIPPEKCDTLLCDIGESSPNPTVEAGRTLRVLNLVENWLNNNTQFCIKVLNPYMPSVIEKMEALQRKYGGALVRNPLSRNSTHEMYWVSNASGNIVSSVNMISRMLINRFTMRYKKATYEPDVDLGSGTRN

| SMILES | Ki [nM] | Fold Affinity Reduction | Ki [1] [nM] |
| --- | --- | --- | --- |
| Nc1ncnc2c1ncn2[C@@H]1O[C@H](COP(=O)(O)OP(=O)(O)OP(=O)(O)O)[C@@H](O)[C@H]1O [ATP, Adenosine triphosphate] | 350000 | 8750 | – |
| Nc1nc2c(ncn2[C@@H]2O[C@H](COP(=O)(O)O)[C@@H](O)[C@H]2O)c(=O)[nH]1 [GMP] | – | – | 950 |
| Nc1nc2c(ncn2[C@@H]2O[C@H](COP(=O)(O)OP(=O)(O)O)[C@@H](O)[C@H]2O)c(=O)[nH]1 [GDP] | – | 3 | 100 |
| O=c1[nH]c(=O)c2ncn([C@@H]3O[C@H](COP(=O)(O)OP(=O)(O)OP(=O)(O)O)[C@@H](O)[C@H]3O)c2[nH]1 [XTP, xanthine triphosphate] | – | 12 | 480 |
| Nc1nc2c(ncn2[C@@H]2O[C@H](COP(=O)(O)OP(=O)(O)OP(=O)(O)O)[C@@H](O)[C@H]2O)c(=O)[nH]1 [GTP, guanosine triphosphate] | 40 | 0 | – |
| O=c1[nH]cnc2c1ncn2[C@@H]1O[C@H](COP(=O)(O)OP(=O)(O)OP(=O)(O)O)[C@@H](O)[C@H]1O [ITP, Inosine triphosphate] | – | 3 | 120 |
| Nc1nc2c(ncn2[C@H]2CC[C@@H](COP(=O)(O)OP(=O)(O)OP(=O)(O)O)O2)c(=O)[nH]1 [ddGTP] | – | 19 | 770 |
| Nc1nc2c(ncn2[C@@H]2O[C@H](CO)[C@@H](O)[C@H]2O)c(=O)[nH]1 [Guanosine, guanosine] | 260000 | 6400 | – |
| Nc1nc2c(ncn2[C@H]2C[C@H](O)[C@@H](COP(=O)(O)OP(=O)(O)OP(=O)(O)O)O2)c(=O)[nH]1 [dGTP] | – | 15 | 610 |
| CSc1nc(N)nc2c1ncn2C1OC(COP(=O)(O)OP(=O)(O)OP(=O)(O)O)C(O)C1O (centres unmarked) [6-methylthio GTP, 6-methylthio-GTP] | – | – | 230 |
| Cn1c[n+]([C@@H]2O[C@H](COP(=O)(O)OP(=O)(O)OP(=O)(O)OC[C@H]3O[C@@H](n4cnc5c(N)ncnc54)[C@H](O)[C@@H]3O)[C@@H](O)[C@H]2O)c2nc(N)[nH]c(=O)c21 [^7meGpppA] | – | – | 170 |
| Cn1c[n+]([C@@H]2O[C@H](COP(=O)(O)OP(=O)(O)OP(=O)(O)OC[C@H]3O[C@@H](n4cnc5c(=O)[nH]c(N)nc54)[C@H](O)[C@@H]3O)[C@@H](O)[C@H]2O)c2nc(N)[nH]c(=O)c21 [^7meGpppG] | – | – | 100 |
